# In patent publication US20260193644A1, “Compositions and Methods For Modulation of Tumor Suppressors and Oncogenes” (FLAGSHIP PIONEERING INNOVATIONS VII, LLC, priority 2022, published 2026):
# Several values for one entry are separate records, joined by “and”; a condition that tells them apart may be missing. Equal values may be shown once.
# B1: SEQ ID NO: 26298: peptide hit of Table E; sequence only in Sequence Listing (peptide, listed as Homo sapiens)
# chain: VQSGKCESSVLGYSATCLPDMGRWRVSSVESWPFASTGGKLAIATAGTGTQAAPRPFLIRPPDSWALALALM
# B2: SEQ ID NO: 34508: ORF peptide; sequence only in Sequence Listing (peptide, listed as Homo sapiens)
# chain: LPLYPLHRKWAGSGLLVFAAPAARAQQGPGEMATVPAPGRTGERALPPPHVSARASFLGSTLWM
# Experiments:
# Format in all cases: cell-based
# [1] = test system: HCT116 cells; assay: WST-1 proliferation assay on HCT116 cells treated with peptide
# Description: Proliferation: HCT-116 cells were plated in 96 well plate (5,000 cells/well) grown in standard media supplemented with 10% FBS. After 48 hours incubation at 37° C. (5% CO2), the cells are subjected to the WST-1 ([…]) assay. The WST-1 assay (Sigma) is a measure of the metabolic activity (i.e. proliferative rate) of cells. […]
# [2] = test system: U2OS cells; assay: WST-1 proliferation assay on U2OS cells treated with peptide
# [3] = test system: HCT-116 cells; assay: Caspase-Glo 3/7 apoptosis assay, peptide-treated HCT-116 cells; details: listed = significant
# Description: (§1) Cell Culture: Tumor cell lines HCT-116 (Colon Cancer Cell line, ATCC) and U2OS (Osteoscarcoma Cell line, ATCC) cells were grown adherently in ATCC-formulated McCoy's 5a medium supplemented with 10% FBS and 1× penicillin-streptomycin at 37° C. (5% CO2). Jurkat cells (acute T-cell leukemia cell line, ATCC) were grown as suspension cultures in ATCC-formulated RPMI-1640 supplemented with 10% FBS and 1× penicillin-streptomycin at 37° C. (5% CO2). HEP-G2 cells (Liver Cancer Cell line, ATCC) cells were grown adherently in ATCC-formulated Eagle's Minimum Essential Medium (EMEM) supplemented with 10% FBS and 1× penicillin-streptomycin at 37° C. (5% CO2).
# (§2) Peptide Treatment: Target protein SEQ ID NO: 37997 was synthesized through Fluorenylmethyloxycarbonyl (Fmoc) protection group chemistry using Solid Phase Peptide Synthesis (SPPS). 5 μM of target peptide and control peptides were added to a 96 well plate containing 10,000 cells (100 μL/well). A white-walled 96-well plate adequate for cell culture and compatible with the luminometer was used. (Corning)
# (§3) Apoptosis Assay: Following 24 hrs of peptide treatment, an equal volume reconstituted Caspase-Glo® 3/7 assay reagent mixture (Promega) was added to the cells. The contents of wells were gently mixed using a plate shaker at 300-500 rpm for 30 seconds. The plate was then Incubate at room temperature for 3 hours. The treated plates were then read for luminescence on Promega™ GloMax® Plate Reader. A blank reaction that contained caspase-Glo® 3/7 reagent, vehicle and cell culture medium without cells was used to measure background luminescence. The blank reaction values were subtracted from experimental values. A negative control that contained caspase-Glo® 3/7 reagent and vehicle-treated cells in medium was included to determine the basal caspase activity of the cell culture system. Significant difference in apoptosis was determined using ANOVA analysis by comparing cells treated with SEQ ID NO: 37997 peptide to cells treated with an irrelevant control peptide, or vehicle control treated cells.
# [4] = test system: Jurkat cells; assay: Caspase-Glo 3/7 apoptosis assay, peptide-treated Jurkat cells; details: listed = significant
# Description: as §1, §2, §3
# [5] = test system: U2OS cells; assay: Caspase-Glo 3/7 apoptosis assay, peptide-treated U2OS cells; details: listed = significant
# Description: as §1, §2, §3
# [6] = Low sera (continued), 0.5 uM, head 3 SD
# [7] = Low sera (continued), 0.1 uM, head 2 SD
# [8] = Low sera (continued), 0.1 uM, head 4 SD
Molecule,"proliferation hit score, High sera ([1]; 0.5 uM, head 3 SD)","proliferation hit score, High sera ([1]; 5 uM, head 3 sd)","proliferation hit score, Low sera [1, 6]","proliferation hit score, Low sera ([1]; Low sera, 5 uM, head 2 SD)","proliferation hit score, High sera ([2]; 5 uM, head 5 SD)","proliferation hit score, Low sera [2, 6]","proliferation hit score, Low sera ([2]; Low sera, 5 uM, head 2 SD)","proliferation hit score, High sera ([1]; 0.1 uM, head 3 SD)","proliferation hit score, High sera ([1]; 1 uM, head 2 SD)","proliferation hit score, High sera ([1]; 10 uM, head 4 SD)","proliferation hit score, Low sera ([1]; Low sera, 1 uM, head 3 SD)","proliferation hit score, Low sera ([1]; Low sera, 10 uM, head 3 SD)","proliferation hit score, High sera ([2]; 1 uM, head 5 SD)","proliferation hit score, High sera ([2]; 10 uM, head 8 SD)","proliferation hit score, Low sera [2, 7]","proliferation hit score, Low sera [2, 8]","proliferation hit score, Low sera ([2]; Low sera, 1 uM, head 5 SD)","proliferation hit score, Low sera ([2]; Low sera, 10 uM, head 6 SD)",also measured
SEQ ID NO: 28759: peptide hit of Table E; sequence only in Sequence Listing (MKKSCRWVFFLITKSLFKETVA; listed as Homo sapiens),−1.466 SD,−1.78 SD,0.5212 SD,−3.329 SD,1.2 SD,−1.934 SD,−4.99 SD,,,,,,,,,,,,
SEQ ID NO: 29230: peptide hit of Table E; sequence only in Sequence Listing (REQVPGMGGKSWLFFYSLVFCALLPLPRREDPFKLF; listed as Homo sapiens),,,,,,,,2.159 SD,−0.4364 SD,0.2713 SD,−1.09 SD,−2.162 SD,−5.771 SD,−5.758 SD,−2.296 SD,2.01 SD,3.875 SD,2.682 SD,
SEQ ID NO: 29485: ORF peptide; sequence only in Sequence Listing (MRSPLSASALLLWSSSVARAFSSPSLLMAVPSPTCSRY; listed as Homo sapiens),,,,,,,,,,,,,,,,2.026 SD and 1.922 SD,3.795 SD and 2.322 SD,5.612 SD and 4.323 SD,peptides inducing significant apoptosis (z-score vs vehicle control) [3]: SEQ ID NO: 29485; peptides inducing significant apoptosis vs vehicle control [4]: SEQ ID NO: 29485
SEQ ID NO: 33599: ORF peptide; sequence only in Sequence Listing (MCLGLLFCFMPLSLVVSSEEARFKVAADLCGFATGNSW; listed as Homo sapiens),,,,,,,,0.5427 SD,−0.6105 SD,−4.843 SD,−0.9914 SD,−5.29 SD,−2.566 SD,−14.68 SD,−0.8886 SD,2.01 SD,4.323 SD,−8.391 SD,
SEQ ID NO: 33681: peptide hit of Table E; sequence only in Sequence Listing (IMAIFFFFCIIVSSLPTAELGTENACSTCLLNE; listed as Homo sapiens),,,,,,,,0.9926 SD,−3.672 SD,−8.606 SD,0.1255 SD,−2.584 SD,−0.8283 SD,−10.57 SD,−1.01 SD,4.988 SD,9.376 SD,−6.861 SD,
SEQ ID NO: 34047: peptide hit of Table E; sequence only in Sequence Listing (MHINYFFFLKLFLSLQNLILALDLRRESLTRDETQ; listed as Homo sapiens),0.5338 SD,0.008734 SD,1.561 SD,0.3241 SD,−6.825 SD,2.331 SD,−5.958 SD,,,,,,,,,,,,
SEQ ID NO: 34296: ORF peptide; sequence only in Sequence Listing (MFFCRNYGSFWFYVLSKMLSFFICLLIFVHLLLLSFLISDWPPPTGSAEHKYSG; listed as Homo sapiens),,,,,,,,,,,,,,,,,,,peptides inducing significant apoptosis vs vehicle control [4]: SEQ ID NO: 34296
SEQ ID NO: 36828: ORF peptide; sequence only in Sequence Listing (MAIFFFFCIIVSSLPTAELGTENACSTCLLNE; listed as Homo sapiens),,,,,,,,,,,,,,,,,,,z-score compared to vehicle control (peptides inducing significant apoptosis) [5]: SEQ ID NO: 36828; peptides inducing significant apoptosis vs vehicle control [4]: SEQ ID NO: 36828
SEQ ID NO: 38017: peptide hit of Table E; sequence only in Sequence Listing (GVFVVARDRRRRELRTGAFSLLLGVVALLPLCGKRIQALPRACGCGGPEVLVVPR; listed as Homo sapiens),−0.9491 SD,−1.457 SD,−0.1996 SD,−1.525 SD,−3.812 SD,2.343 SD,−2.719 SD,,,,,,,,,,,,
SEQ ID NO: 38073: peptide hit of Table E; sequence only in Sequence Listing (MTVSLFLLLATSQSQDGCCDSGSCPNSRQQEGHGAAPASSCLPIP; listed as Homo sapiens),0.3814 SD,−0.2232 SD,0.586 SD,0.1141 SD,−4.132 SD,3.652 SD,−1.571 SD,,,,,,,,,,,,
SEQ ID NO: 38076: ORF peptide; sequence only in Sequence Listing (MHLLLLPVIFLPWVLPQHKHTSATPGFSSEKQFMSETENQTANVKFY; listed as Homo sapiens),−0.8521 SD,−1.476 SD,0.1011 SD,−0.293 SD,−0.8798 SD,3.033 SD,0.2974 SD,,,,,,,,,,,,
SEQ ID NO: 38081: peptide hit of Table E; sequence only in Sequence Listing (MRRAWRPRLLGAALVAH; listed as Homo sapiens),,,,,,,,−0.4952 SD,−0.4884 SD,−0.5065 SD,−3.589 SD,−2.477 SD,−15.19 SD,−3.67 SD,−3.47 SD,2.082 SD,1.521 SD,−2.322 SD,
B1,,,,,,2.391 SD and 2.95 SD,,,,,,,,,,,,,
B2,0.2038 SD,−0.02329 SD,0.9567 SD,1.932 SD,−0.8798 SD,5.043 SD,1.344 SD,−5.097 SD,−2.867 SD,−5.856 SD,−1.6 SD,−3.628 SD,−1.711 SD,−12.11 SD,1.335 SD,3.475 SD,4.275 SD,−11.74 SD,
